Format in all cases: functional, organism-based
The test system of assay [1] is Mus musculus. The assay can be described thus: Activity of perorally administered compound at a dose of 20 mg/kg for 4 days against plasma glucose in obese mice. Further details: dose 20 mg/kg.
For assay [2], the system named is Mus musculus. Description: Activity of perorally administered compound at a dose of 20 mg/kg for 4 days against plasma insulin in obese mice. Further details: dose 20 mg/kg.
Assay [3] concerns Mus musculus. The assay can be described thus: Activity of perorally administered compound at a dose of 75 mg/kg for 4 days against plasma glucose in obese mice. More on the design: dose 75 mg/kg.
Assay [4] concerns Mus musculus. The assay can be described thus: Activity of perorally administered compound at a dose of 20 mg/kg for 10 days against plasma glucose in diabetic mice. Further details: dose 20 mg/kg.
In assay [5] the test system is Mus musculus. Description: Activity of perorally administered compound at a dose of 20 mg/kg for 10 days against plasma insulin in diabetic mice. Further details: dose 20 mg/kg.
In assay [6] the test system is Mus musculus. Description: Activity of perorally administered compound at a dose of 75 mg/kg for 4 days against plasma glucose in diabetic mice. More on the design: dose 75 mg/kg.
Assay [7] deals with Mus musculus. The assay can be described thus: Activity of perorally administered compound at a dose of 75 mg/kg for 4 days against plasma insulin in diabetic mice. More on the design: dose 75 mg/kg.

“And” between values parts separate entries of the source, which are not always exact repeats. Equal values may be shown once.

In turn, `O=C(Nc1ccc(Cc2nnn(Cc3ccccc3)n2)cc1)C(F)(F)C(F)(F)C(F)(F)C(F)(F)C(F)(F)C(F)(F)C(F)(F)F` yielded a Plasma glucose in the assay on Mus musculus [1] of 119 mg/dL. Also, the Plasma insulin in the assay with Mus musculus [2] was 204 µU/mL.

As to `CN(C(=O)C(F)(F)C(F)(F)C(F)(F)C(F)(F)C(F)(F)C(F)(F)C(F)(F)F)c1ccc(Cc2nnn(C)n2)cc1`, the Plasma glucose with Mus musculus [1] stood at 128 mg/dL. The molecule further yielded a Plasma insulin in the assay with Mus musculus [2] of 205 µU/mL.

For `O=C(Nc1ccc(Cc2nn[nH]n2)cc1)C(F)(F)C(F)(F)C(F)(F)F`, the Plasma glucose was determined as 213 mg/dL with Mus musculus [1], 100 mg/dL with Mus musculus [3] and 307 mg/dL with Mus musculus [4]. The Plasma insulin in the assay on Mus musculus [5] was 19 µU/mL.

`CC1(COc2ccc(CC3SC(=O)NC3=O)cc2)CCCCC1` (stereo not drawn): the Plasma glucose in the assay on Mus musculus [1] is 191 mg/dL; with Mus musculus [6] it was 348 mg/dL; in the assay with Mus musculus [3], 107 mg/dL; in the assay on Mus musculus [4], 320 mg/dL. The Plasma insulin in the assay on Mus musculus [7] came out at 25 µU/mL; in the assay with Mus musculus [5], 20 µU/mL.

On to `O=C(Nc1ccc(Cc2nnn[nH]2)cc1)C(F)(F)C(F)(F)C(F)(F)C(F)(F)C(F)(F)C(F)(F)C(F)(F)C(F)(F)C(F)(F)C(F)F`, for which the values for the Plasma glucose with Mus musculus [1] and in the assay with Mus musculus [3] were 123 mg/dL and 118 mg/dL, respectively.

`CN(C(=O)C(F)(F)C(F)(F)C(F)(F)C(F)(F)C(F)(F)C(F)(F)C(F)(F)F)c1ccc(Cc2nnnn2C)cc1` registered a Plasma glucose in the assay with Mus musculus [1] of 119 mg/dL. The molecule further registered a Plasma insulin in the assay with Mus musculus [2] of 204 µU/mL.

Turning to `O=C(Nc1ccc(Cc2nnn[nH]2)cc1)C(F)(F)C(F)(F)F`, the Plasma glucose in the assay on Mus musculus [1] was determined as 198 mg/dL; in the assay with Mus musculus [3], 120 mg/dL.

As for `O=C(Nc1ccc(Cc2nn[nH]n2)cc1)C(F)(F)C(F)(F)C(F)(F)C(F)(F)C(F)(F)C(F)(F)C(F)(F)F`, the Plasma glucose was 111 mg/dL and 119 mg/dL with Mus musculus [1]; 163 mg/dL in the assay on Mus musculus [6]; 87 mg/dL with Mus musculus [3]; 256 mg/dL in the assay with Mus musculus [4]. Further, the figures for the Plasma insulin in the assay with Mus musculus [7], with Mus musculus [2] and in the assay with Mus musculus [5] were 32 µU/mL, 140 µU/mL and 14 µU/mL, respectively.

For `O=C(Nc1ccc(Cc2nnn[nH]2)cc1)C(F)(F)C(F)(F)C(F)(F)C(F)(F)F`, the Plasma glucose is 207 mg/dL in the assay on Mus musculus [1] and 170 mg/dL with Mus musculus [3].

With `O=C(Nc1ccc(Cc2nnn[nH]2)cc1)C(F)(F)C(F)(F)C(F)(F)C(F)(F)C(F)(F)C(F)(F)F`, the Plasma glucose with Mus musculus [1] is 231 mg/dL; with Mus musculus [3], 162 mg/dL.

Regarding `O=C(Nc1ccc(Cc2nnn[nH]2)cc1)C(F)(F)C(F)(F)C(F)(F)C(F)(F)C(F)(F)C(F)(F)C(F)(F)C(F)(F)F`, the Plasma glucose was found to be 128 mg/dL in the assay with Mus musculus [1] and 106 mg/dL with Mus musculus [3].

As to `O=C(Nc1ccc(Cc2nnnn2Cc2ccccc2)cc1)C(F)(F)C(F)(F)C(F)(F)C(F)(F)C(F)(F)C(F)(F)C(F)(F)F`, the Plasma glucose with Mus musculus [1] came to 152 mg/dL. Further, in the assay with Mus musculus [2], the Plasma insulin amounted to 249 µU/mL.

Take `O=C(Nc1ccc(Cc2nnn[nH]2)cc1)C(F)(F)C(F)(F)C(F)(F)C(F)(F)C(F)(F)C(F)(F)C(F)(F)C(F)F`: the Plasma glucose in the assay with Mus musculus [1] is 108 mg/dL; in the assay on Mus musculus [6], 124 mg/dL; with Mus musculus [3], 93 mg/dL. In the assay with Mus musculus [7], this molecule gave a Plasma insulin of 34 µU/mL.

With `O=C(Nc1ccc(Cc2nnn[nH]2)cc1)C(F)(F)C(F)(F)C(F)(F)C(F)(F)C(F)(F)C(F)(F)C(F)(F)C(F)(F)C(F)(F)F`, the results for the Plasma glucose in the assay on Mus musculus [1] and in the assay with Mus musculus [3] were 133 mg/dL and 144 mg/dL, respectively.

On to `O=C(Nc1ccc(Cc2nnn[nH]2)cc1)C(F)(F)F`, for which the Plasma glucose with Mus musculus [1] stood at 273 mg/dL; in the assay with Mus musculus [3], 138 mg/dL.
